Laboratory results published in patent US20230085307A1, “PYRIDAZINONE COMPOUND AND HERBICIDE” (NISSAN CHEMICAL CORPORATION, priority 2019, published 2023).

How the values were obtained:
[1] = system: barnyard grass; assay: Test Example 3: herbicidal effect by foliage application, Wagner pot (Table 18, symbol H); format: in vivo, barnyard grass (Echinochloa crus-galli); conditions: 320 g/ha
Summary of the method: (§1)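 Plants were sown in alluvial soil held under 0.1–0.5 cm standing water and grown 14 days in a greenhouse at 25–30 °C. An emulsifiable formulation, water-diluted to the set dose, was then sprayed onto the foliage, and effects were scored three weeks later using previously defined criteria.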

[2] = system: chickweed; assay: Test Example 5: herbicidal effect by foliage application, plastic box (Table 20, symbol P); format: in vivo, common chickweed (Stellaria media); conditions: amount of applied herbicide 320 g/ha; foliage application after 14-day growth; evaluated three weeks after application
Summary of the method: (§2)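 Sow seeds spot-wise in sterilized diluvial soil; cover with ~1.5 cm soil. Grow 14 days in greenhouse, 25° C. to 30° C. Spray foliage with emulsion diluted to predetermined amount. Rate effect after 3 weeks.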

[3] = system: barnyard grass; assay: Test Example 4: herbicidal effect by soil treatment (Table 19, symbol H); format: in vivo, barnyard grass (Echinochloa crus-galli); conditions: amount of applied herbicide 320 g/ha
Summary of the method: (§3)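 Soil-surface application: an emulsion agent diluted with water to the predetermined dose is sprayed uniformly over seeds lying under roughly 1.5 cm of sterilized diluvial soil. Boxes stay in a greenhouse at 25° C. to 30° C. Three weeks later, each species is graded on previously defined criteria.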

[4] = system: chickweed; assay: Test Example 4: herbicidal effect by soil treatment (Table 19, symbol P); format: in vivo, common chickweed (Stellaria media); conditions: amount of applied herbicide 320 g/ha
Summary of the method: as §3

[5] = system: redroot pigweed; assay: Test Example 5: herbicidal effect by foliage application, plastic box (Table 20, symbol N); format: in vivo, redroot pigweed (Amaranthus retroflexus); conditions: amount of applied herbicide 320 g/ha; foliage application after 14-day growth; evaluated three weeks after application
Summary of the method: as §2

[6] = system: lambsquarters; assay: Test Example 5: herbicidal effect by foliage application, plastic box (Table 20, symbol O); format: in vivo, lambsquarters (Chenopodium album); conditions: amount of applied herbicide 320 g/ha; foliage application after 14-day growth; evaluated three weeks after application
Summary of the method: as §2

[7] = system: Italian ryegrass; assay: Test Example 5: herbicidal effect by foliage application, plastic box (Table 20, symbol K); format: in vivo, Italian ryegrass (Lolium multiflorum); conditions: amount of applied herbicide 320 g/ha; foliage application after 14-day growth; evaluated three weeks after application
Summary of the method: as §2

[8] = system: rice flat sedge; assay: Test Example 3: herbicidal effect by foliage application, Wagner pot (Table 18, symbol E); format: in vivo, rice flat sedge (Cyperus iria); conditions: 320 g/ha
Summary of the method: as §1

[9] = system: green foxtail; assay: Test Example 5: herbicidal effect by foliage application, plastic box (Table 20, symbol G); format: in vivo, green foxtail (Setaria viridis); conditions: amount of applied herbicide 320 g/ha; foliage application after 14-day growth; evaluated three weeks after application
Summary of the method: as §2

[10] = system: redroot pigweed; assay: Test Example 4: herbicidal effect by soil treatment (Table 19, symbol N); format: in vivo, redroot pigweed (Amaranthus retroflexus); conditions: amount of applied herbicide 320 g/ha
Summary of the method: as §3

[11] = system: persian speedwell; assay: Test Example 4: herbicidal effect by soil treatment (Table 19, symbol R); format: in vivo, Persian speedwell (Veronica persica); conditions: amount of applied herbicide 320 g/ha
Summary of the method: as §3

[12] = system: wild oat; assay: Test Example 4: herbicidal effect by soil treatment (Table 19, symbol I); format: in vivo, wild oat (Avena fatua); conditions: amount of applied herbicide 320 g/ha
Summary of the method: as §3

[13] = system: southern crabgrass; assay: Test Example 5: herbicidal effect by foliage application, plastic box (Table 20, symbol F); format: in vivo, southern crabgrass (Digitaria ciliaris); conditions: amount of applied herbicide 320 g/ha; foliage application after 14-day growth; evaluated three weeks after application
Summary of the method: as §2

[14] = system: lambsquarters; assay: Test Example 4: herbicidal effect by soil treatment (Table 19, symbol O); format: in vivo, lambsquarters (Chenopodium album); conditions: amount of applied herbicide 320 g/ha
Summary of the method: as §3

[15] = system: green foxtail; assay: Test Example 4: herbicidal effect by soil treatment (Table 19, symbol G); format: in vivo, green foxtail (Setaria viridis); conditions: amount of applied herbicide 320 g/ha
Summary of the method: as §3

[16] = system: persian speedwell; assay: Test Example 5: herbicidal effect by foliage application, plastic box (Table 20, symbol R); format: in vivo, Persian speedwell (Veronica persica); conditions: amount of applied herbicide 320 g/ha; foliage application after 14-day growth; evaluated three weeks after application
Summary of the method: as §2

[17] = system: barnyard grass; assay: Test Example 5: herbicidal effect by foliage application, plastic box (Table 20, symbol H); format: in vivo, barnyard grass (Echinochloa crus-galli); conditions: amount of applied herbicide 320 g/ha; foliage application after 14-day growth; evaluated three weeks after application
Summary of the method: as §2

[18] = system: velvetleaf; assay: Test Example 4: herbicidal effect by soil treatment (Table 19, symbol M); format: in vivo, velvetleaf (Abutilon theophrasti); conditions: amount of applied herbicide 320 g/ha
Summary of the method: as §3

[19] = system: windgrass; assay: Test Example 4: herbicidal effect by soil treatment (Table 19, symbol L); format: in vivo, windgrass (Apera spica-venti); conditions: amount of applied herbicide 320 g/ha
Summary of the method: as §3

[20] = system: blackgrass; assay: Test Example 4: herbicidal effect by soil treatment (Table 19, symbol J); format: in vivo, blackgrass (Alopecurus myosuroides); conditions: amount of applied herbicide 320 g/ha
Summary of the method: as §3

[21] = system: Chinese sprangletop; assay: Test Example 3: herbicidal effect by foliage application, Wagner pot (Table 18, symbol D); format: in vivo, chinese sprangletop (Leptochloa chinensis); conditions: 320 g/ha
Summary of the method: as §1

[22] = system: windgrass; assay: Test Example 5: herbicidal effect by foliage application, plastic box (Table 20, symbol L); format: in vivo, windgrass (Apera spica-venti); conditions: amount of applied herbicide 320 g/ha; foliage application after 14-day growth; evaluated three weeks after application
Summary of the method: as §2

[23] = system: oval-leafed pondweed; assay: Test Example 1: herbicidal activity, application before weed generation under submerged conditions (Table 16, symbol C); format: in vivo, oval-leafed pondweed (Monochoria vaginalis); conditions: amount of applied herbicide 320 g/ha
Summary of the method: (§4)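 Alluvial soil was flooded to 4 cm depth, weed seeds were sown mixed and 2.5-leaf rice seedlings were transplanted. On sowing day, the compound's emulsion, diluted in water to a set dose, was applied to the water surface. Plants grew at 25–30 °C and were scored 0–5 after three weeks.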

[24] = system: blackgrass; assay: Test Example 5: herbicidal effect by foliage application, plastic box (Table 20, symbol J); format: in vivo, blackgrass (Alopecurus myosuroides); conditions: amount of applied herbicide 320 g/ha; foliage application after 14-day growth; evaluated three weeks after application
Summary of the method: as §2

[25] = system: southern crabgrass; assay: Test Example 4: herbicidal effect by soil treatment (Table 19, symbol F); format: in vivo, southern crabgrass (Digitaria ciliaris); conditions: amount of applied herbicide 320 g/ha
Summary of the method: as §3

[26] = system: Italian ryegrass; assay: Test Example 4: herbicidal effect by soil treatment (Table 19, symbol K); format: in vivo, Italian ryegrass (Lolium multiflorum); conditions: amount of applied herbicide 320 g/ha
Summary of the method: as §3

[27] = system: wild oat; assay: Test Example 5: herbicidal effect by foliage application, plastic box (Table 20, symbol I); format: in vivo, wild oat (Avena fatua); conditions: amount of applied herbicide 320 g/ha; foliage application after 14-day growth; evaluated three weeks after application
Summary of the method: as §2

[28] = system: late watergrass; assay: Test Example 1: herbicidal activity, application before weed generation under submerged conditions (Table 16, symbol A); format: in vivo, late watergrass (Echinochloa oryzicola); conditions: amount of applied herbicide 320 g/ha
Summary of the method: as §4

[29] = system: velvetleaf; assay: Test Example 5: herbicidal effect by foliage application, plastic box (Table 20, symbol M); format: in vivo, velvetleaf (Abutilon theophrasti); conditions: amount of applied herbicide 320 g/ha; foliage application after 14-day growth; evaluated three weeks after application
Summary of the method: as §2

[30] = system: Japanese bulrush; assay: Test Example 1: herbicidal activity, application before weed generation under submerged conditions (Table 16, symbol B); format: in vivo, Japanese bulrush (Schoenoplectus juncoides); conditions: amount of applied herbicide 320 g/ha
Summary of the method: as §4

SMILES	herbicidal effect on barnyard grass (H) [1]	Herbicidal effect by foliage application, P: chickweed [2]	Herbicidal effect by foliage application, N: redroot pigweed [5]	Herbicidal effect by foliage application, O: lambsquarters [6]	Herbicidal effect by foliage application, K: Italian ryegrass [7]	herbicidal effect on rice flat sedge (E) [8]	Herbicidal effect by foliage application, G: green foxtail [9]	Herbicidal effect by foliage application, F: southern crabgrass [13]	Herbicidal effect by foliage application, R: persian speedwell [16]	Herbicidal effect by foliage application, H: barnyard grass [17]	herbicidal effect on Chinese sprangletop (D) [21]	Herbicidal effect by foliage application, L: windgrass [22]	Herbicidal effect, C: oval-leafed pondweed [23]	Herbicidal effect by foliage application, J: blackgrass [24]	Herbicidal effect by foliage application, I: wild oat [27]	Herbicidal effect, A: late watergrass [28]	Herbicidal effect by foliage application, M: velvetleaf [29]	Herbicidal effect, B: Japanese bulrush [30]	further results
CCCC(=O)Oc1c(C)nn(C)c(=O)c1-c1c(-c2ccc(OC(F)(F)F)cc2)sc2c(Cl)cccc12 [4-079]	2 (Herbicidal rate of 20% or more and less than 40%)	5 (Herbicidal rate of 90% or more (almost completely withered))	3 (Herbicidal rate of 40% or more and less than 70%)	3 (Herbicidal rate of 40% or more and less than 70%)	0 (Herbicidal rate of 5% or less (almost no effect))	2 (Herbicidal rate of 20% or more and less than 40%)	0 (Herbicidal rate of 5% or less (almost no effect))	0 (Herbicidal rate of 5% or less (almost no effect))	5 (Herbicidal rate of 90% or more (almost completely withered))	0 (Herbicidal rate of 5% or less (almost no effect))	2 (Herbicidal rate of 20% or more and less than 40%)	3 (Herbicidal rate of 40% or more and less than 70%)	0 (Herbicidal rate of 5% or less (almost no effect))	0 (Herbicidal rate of 5% or less (almost no effect))	0 (Herbicidal rate of 5% or less (almost no effect))	2 (Herbicidal rate of 20% or more and less than 40%)	4 (Herbicidal rate of 70% or more and less than 90%)	0 (Herbicidal rate of 5% or less (almost no effect))	Herbicidal effect by soil treatment, H: barnyard grass [3]: 0 (Herbicidal rate of 5% or less (almost no effect)); Herbicidal effect by soil treatment, P: chickweed [4]: 0 (Herbicidal rate of 5% or less (almost no effect)); Herbicidal effect by soil treatment, N: redroot pigweed [10]: 2 (Herbicidal rate of 20% or more and less than 40%); Herbicidal effect by soil treatment, R: persian speedwell [11]: 3 (Herbicidal rate of 40% or more and less than 70%); Herbicidal effect by soil treatment, I: wild oat [12]: 0 (Herbicidal rate of 5% or less (almost no effect)); Herbicidal effect by soil treatment, O: lambsquarters [14]: 0 (Herbicidal rate of 5% or less (almost no effect)); Herbicidal effect by soil treatment, G: green foxtail [15]: 0 (Herbicidal rate of 5% or less (almost no effect)); Herbicidal effect by soil treatment, M: velvetleaf [18]: 0 (Herbicidal rate of 5% or less (almost no effect)); Herbicidal effect by soil treatment, L: windgrass [19]: 0 (Herbicidal rate of 5% or less (almost no effect)); Herbicidal effect by soil treatment, J: blackgrass [20]: 0 (Herbicidal rate of 5% or less (almost no effect)); Herbicidal effect by soil treatment, F: southern crabgrass [25]: 0 (Herbicidal rate of 5% or less (almost no effect)); Herbicidal effect by soil treatment, K: Italian ryegrass [26]: 0 (Herbicidal rate of 5% or less (almost no effect))
Cc1nn(C)c(=O)c(-c2c(-c3ccc(OC(C)C)cc3)sc3cc(F)c(F)cc23)c1O [5-019]	4 (Herbicidal rate of 70% or more and less than 90%)	5 (Herbicidal rate of 90% or more (almost completely withered))	5 (Herbicidal rate of 90% or more (almost completely withered))	3 (Herbicidal rate of 40% or more and less than 70%)	3 (Herbicidal rate of 40% or more and less than 70%)	1 (Herbicidal rate of 5% or more and less than 20%)	4 (Herbicidal rate of 70% or more and less than 90%)	4 (Herbicidal rate of 70% or more and less than 90%)	5 (Herbicidal rate of 90% or more (almost completely withered))	4 (Herbicidal rate of 70% or more and less than 90%)	0 (Herbicidal rate of 5% or less (almost no effect))	0 (Herbicidal rate of 5% or less (almost no effect))	0 (Herbicidal rate of 5% or less (almost no effect))	0 (Herbicidal rate of 5% or less (almost no effect))	0 (Herbicidal rate of 5% or less (almost no effect))	3 (Herbicidal rate of 40% or more and less than 70%)	4 (Herbicidal rate of 70% or more and less than 90%)	0 (Herbicidal rate of 5% or less (almost no effect))	H: barnyard grass, herbicidal effect grade [3]: 0 (Herbicidal rate of 5% or less (almost no effect)); P: chickweed, herbicidal effect grade [4]: 1 (Herbicidal rate of 5% or more and less than 20%); N: redroot pigweed, herbicidal effect grade [10]: 4 (Herbicidal rate of 70% or more and less than 90%); R: persian speedwell, herbicidal effect grade [11]: 4 (Herbicidal rate of 70% or more and less than 90%); I: wild oat, herbicidal effect grade [12]: 0 (Herbicidal rate of 5% or less (almost no effect)); O: lambsquarters, herbicidal effect grade [14]: 2 (Herbicidal rate of 20% or more and less than 40%); G: green foxtail, herbicidal effect grade [15]: 3 (Herbicidal rate of 40% or more and less than 70%); M: velvetleaf, herbicidal effect grade [18]: 3 (Herbicidal rate of 40% or more and less than 70%); L: windgrass, herbicidal effect grade [19]: 0 (Herbicidal rate of 5% or less (almost no effect)); J: blackgrass, herbicidal effect grade [20]: 0 (Herbicidal rate of 5% or less (almost no effect)); F: southern crabgrass, herbicidal effect grade [25]: 0 (Herbicidal rate of 5% or less (almost no effect)); K: Italian ryegrass, herbicidal effect grade [26]: 0 (Herbicidal rate of 5% or less (almost no effect))
